Patent US20230219962A1, “PYRAZOLO[4,3-d]PYRIMIDINE DERIVATIVES AND METHODS OF USE THEREOF FOR THE TREATMENT OF CELLULAR PROLIFERATIVE DISORDERS” (Merck Sharp & Dohme LLC, priority 2020, published 2023)

What was measured:
hTLR8 = molecular target: T1, hTLR8 (Homo sapiens, UniProt Q9NR97); experiment: Human TLR8 Reporter Assay; assay type: cell-based; conditions: HEK-Blue hTLR8 cells, 16 hours, normalized to tl8-506 (1 μM) and DMSO
T1 construct: host or cells: HEK-Blue hTLR8 cells (HEK293-derived, own knowledge)
T1 sequence (Q9NR97 27-1041): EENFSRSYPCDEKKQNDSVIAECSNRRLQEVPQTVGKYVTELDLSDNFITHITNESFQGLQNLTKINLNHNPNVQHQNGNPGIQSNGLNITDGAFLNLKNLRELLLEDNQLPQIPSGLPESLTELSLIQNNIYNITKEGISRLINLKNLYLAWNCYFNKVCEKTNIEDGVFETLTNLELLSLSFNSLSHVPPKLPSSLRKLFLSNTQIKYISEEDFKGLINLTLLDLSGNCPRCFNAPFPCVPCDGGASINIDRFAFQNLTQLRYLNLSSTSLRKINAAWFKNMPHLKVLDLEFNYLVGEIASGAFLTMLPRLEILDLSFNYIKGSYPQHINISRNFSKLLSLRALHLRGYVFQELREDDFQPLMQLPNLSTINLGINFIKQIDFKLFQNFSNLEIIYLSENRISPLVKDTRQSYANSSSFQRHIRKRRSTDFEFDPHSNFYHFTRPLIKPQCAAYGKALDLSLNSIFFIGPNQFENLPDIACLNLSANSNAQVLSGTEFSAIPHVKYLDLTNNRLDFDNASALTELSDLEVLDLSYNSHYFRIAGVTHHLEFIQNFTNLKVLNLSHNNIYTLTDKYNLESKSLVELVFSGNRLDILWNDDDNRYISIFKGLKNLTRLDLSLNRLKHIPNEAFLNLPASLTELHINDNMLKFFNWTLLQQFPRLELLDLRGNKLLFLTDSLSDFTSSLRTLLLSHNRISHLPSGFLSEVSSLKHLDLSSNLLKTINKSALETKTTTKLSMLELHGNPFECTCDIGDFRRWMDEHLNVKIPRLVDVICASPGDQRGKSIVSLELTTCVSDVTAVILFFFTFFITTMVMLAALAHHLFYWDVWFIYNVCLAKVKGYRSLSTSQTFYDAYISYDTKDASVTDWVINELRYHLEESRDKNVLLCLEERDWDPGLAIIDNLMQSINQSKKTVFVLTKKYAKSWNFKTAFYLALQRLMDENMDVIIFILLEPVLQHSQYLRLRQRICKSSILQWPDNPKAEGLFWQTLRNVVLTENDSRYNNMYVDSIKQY
Summary of the method: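 HEK-Blue hTLR8 cells (20,000/well) incubated 16 h at 37 °C with 10-point 3-fold compound dilutions in HEK-Blue Detection medium; reporter read as absorbance at 620 nm. Effects normalized between DMSO and tl8-506 (1 μM); EC50 from 4-parameter fit.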

hTLR7 = molecular target: T2, hTLR7 (Homo sapiens, UniProt Q9NYK1); experiment: Human TLR7 Reporter Assay; assay type: cell-based; conditions: HEK-Blue hTLR7 cells, 16 hours, normalized to CL097 (6 μM) and DMSO
T2 construct: host or cells: HEK-Blue hTLR7 cells (HEK293-derived, own knowledge)
T2 sequence (Q9NYK1 27-1049): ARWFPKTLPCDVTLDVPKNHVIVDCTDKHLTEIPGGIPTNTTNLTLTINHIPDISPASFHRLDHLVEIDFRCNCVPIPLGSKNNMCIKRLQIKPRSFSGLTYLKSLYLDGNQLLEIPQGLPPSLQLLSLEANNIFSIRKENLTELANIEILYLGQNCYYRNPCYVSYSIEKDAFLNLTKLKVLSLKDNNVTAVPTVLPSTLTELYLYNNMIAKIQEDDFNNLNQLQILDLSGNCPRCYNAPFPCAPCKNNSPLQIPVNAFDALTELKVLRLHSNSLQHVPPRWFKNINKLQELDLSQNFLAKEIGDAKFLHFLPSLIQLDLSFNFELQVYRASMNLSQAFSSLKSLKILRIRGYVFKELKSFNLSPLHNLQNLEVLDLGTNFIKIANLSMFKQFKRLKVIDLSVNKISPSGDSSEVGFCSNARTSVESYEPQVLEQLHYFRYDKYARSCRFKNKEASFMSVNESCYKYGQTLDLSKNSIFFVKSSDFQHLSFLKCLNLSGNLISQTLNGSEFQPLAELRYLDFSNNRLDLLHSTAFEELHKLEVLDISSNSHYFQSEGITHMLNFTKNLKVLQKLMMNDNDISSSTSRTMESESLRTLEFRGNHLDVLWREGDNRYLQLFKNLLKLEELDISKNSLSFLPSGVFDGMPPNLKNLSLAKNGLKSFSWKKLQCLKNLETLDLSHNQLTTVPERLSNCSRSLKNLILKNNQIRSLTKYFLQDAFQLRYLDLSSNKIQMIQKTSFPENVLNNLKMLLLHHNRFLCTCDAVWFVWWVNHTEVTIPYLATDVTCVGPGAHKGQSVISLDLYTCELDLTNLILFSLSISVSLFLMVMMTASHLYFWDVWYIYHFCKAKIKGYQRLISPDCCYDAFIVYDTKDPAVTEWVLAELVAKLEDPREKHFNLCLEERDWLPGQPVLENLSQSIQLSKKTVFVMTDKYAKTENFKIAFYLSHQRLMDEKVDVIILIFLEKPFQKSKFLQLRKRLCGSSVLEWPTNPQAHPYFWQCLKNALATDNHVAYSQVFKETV
Summary of the method: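 HEK-Blue hTLR7 reporter cells (20,000/well) incubated 16 h at 37 °C with 10-point 3-fold compound dilutions; SEAP read by absorbance at 620 nm. Effects normalized between CL097 (6 μM) and DMSO controls; EC50 from 4-parameter fit.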

SMILES	EC50 (hTLR8)	EC50 (hTLR7)
CCCCNc1nc(N)nc2cn(Cc3cc(CNC)ccc3OC)nc12 [Compound 148]	590 nM	370 nM
CCC[C@@H](CO)Nc1nc(N)nc2cn(Cc3ccc(CN4CC(CN)C4)cc3OC)nc12 [Compound 149]	1180 nM	5180 nM
CCC[C@@H](CO)Nc1nc(N)nc2cn(Cc3ccc(N4CCNCC4)cc3OC)nc12 [Compound 150]	1640 nM	1620 nM
CCCCNc1nc(N)nc2cn(Cc3cc(CN4CC(CN)C4)ccc3OC)nc12 [Compound 151]	869 nM	2260 nM
CCC[C@@H](CO)Nc1nc(N)nc2cn(Cc3c(OC)cc(CN)cc3OC)nc12 [Compound 152]	122 nM	185 nM
CCC[C@@H](CO)Nc1nc(N)nc2cn(Cc3ccc(N4CCN(C(=O)C5CCC(CN6C(=O)C=CC6=O)CC5)CC4)cc3OC)nc12 (stereo partly shown) [Compound 153]	3140 nM	1060 nM
CCC[C@@H](CO)Nc1nc(N)nc2cn(Cc3c(OC)cc(CNC)cc3OC)nc12 [Compound 154]	4150 nM	1080 nM
CCC[C@@H](CO)Nc1nc(N)nc2cn(Cc3ccc(CNC)cc3OC)nc12 [Compound 155]	6530 nM	2460 nM
C=CCN(C)Cc1ccc(Cn2cc3nc(N)nc(N[C@H](CO)CCC)c3n2)c(OC)c1 [Compound 156]	153 nM	76.8 nM
C=CCN(C)Cc1cnc(Cn2cc3nc(N)nc(NCCCC)c3n2)c(OC)c1 [Compound 157]	370 nM	55.9 nM
C=CCN(C)Cc1cc(OC)c(Cn2cc3nc(N)nc(NC(C)CCC)c3n2)c(OC)c1 (stereo not shown) [Compound 158]	178 nM	21.8 nM
CCCCNc1nc(N)nc2cn(Cc3nc(N4CCNCC4)ccc3OC)nc12 [Compound 159]	9550 nM	1150 nM
CCCCNc1nc(N)nc2cn(Cc3nc(Br)oc3C)nc12 [Compound 160]	8300 nM	373 nM
C=CCN(C)Cc1cc(OC)c(Cn2cc3nc(N)nc(N[C@H](CO)CCC)c3n2)c(OC)c1 [Compound 161]	91 nM	42.2 nM
CCCCNc1nc(N)nc2cn(Cc3nc(NCCCN)ccc3OC)nc12 [Compound 162]	1010 nM	160 nM
CCCCNc1nc(N)nc2cn(Cc3ncc(CNC)cc3OC)nc12 [Compound 163]	809 nM	476 nM
CCCC(C)Nc1nc(N)nc2cn(Cc3c(OC)cc(CNC)cc3OC)nc12 (stereo not shown) [Compound 164]	168 nM	110 nM
CCCCNc1nc(N)nc2cn(Cc3nc(CNC)oc3C)nc12 [Compound 165]	4680 nM	1360 nM
CCCCNc1nc(N)nc2cn(Cc3ccc(N)cc3OC)nc12 [Compound 166]	632 nM	93 nM
CCCCNc1nc(N)nc2cn(Cc3ccc(C(C)N)cc3OC)nc12 (stereo not shown) [Compound 167]	179 nM	357 nM
C=CCN(C)Cc1nc(Cn2cc3nc(N)nc(NCCCC)c3n2)c(C)o1 [Compound 169]	4060 nM	1850 nM
CCCCNc1nc(N)nc2cn(Cc3nc(C)no3)nc12 [Compound 170]	4430 nM	1560 nM
CCCCNc1nc(N)nc2cn(Cc3cc(C)no3)nc12 [Compound 171]	2520 nM	516 nM
